Experimental data: publication PMC9508125, “The evolutionary advantage of an aromatic clamp in plant family 3 glycoside exo-hydrolases” (Nature Communications, 2022)
Positions count from the first letter of the chain named.

Assays:
Test in all cases: Relative rates of hydrolysis of poly-, oligosaccharides and aryl-glycosides
Assay type in all cases: biochemical
[1] = molecular target: T1, HvExoI W286F/W434F mutant (Hordeum vulgare, UniProt Q9XEI3, W311F/W459F); settings: substance is the substrate, nd = activity not detected
T1 sequence (Q9XEI3 26-630 W311F/W459F): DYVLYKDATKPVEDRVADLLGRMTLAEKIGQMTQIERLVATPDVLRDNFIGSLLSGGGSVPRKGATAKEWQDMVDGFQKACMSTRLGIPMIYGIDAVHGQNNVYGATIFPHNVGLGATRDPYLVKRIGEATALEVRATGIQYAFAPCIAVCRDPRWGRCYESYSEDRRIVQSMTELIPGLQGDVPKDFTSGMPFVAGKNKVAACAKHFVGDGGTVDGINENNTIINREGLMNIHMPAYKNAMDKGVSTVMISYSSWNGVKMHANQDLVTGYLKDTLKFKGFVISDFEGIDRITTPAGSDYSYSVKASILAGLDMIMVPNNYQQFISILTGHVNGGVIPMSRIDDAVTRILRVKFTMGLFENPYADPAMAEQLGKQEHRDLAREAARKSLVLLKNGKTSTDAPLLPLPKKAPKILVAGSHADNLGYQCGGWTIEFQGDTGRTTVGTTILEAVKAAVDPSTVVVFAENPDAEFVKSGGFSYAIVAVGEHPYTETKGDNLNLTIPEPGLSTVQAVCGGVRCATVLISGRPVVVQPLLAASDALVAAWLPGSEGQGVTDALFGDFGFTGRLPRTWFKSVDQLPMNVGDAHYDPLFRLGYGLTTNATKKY
Protocol: (§1) Dependency of activities of WT and mutant HvExoI on pH (McIlvaine buffers in the pH range of 3.5–8.5 at 30 °C) and temperature (100 mM sodium acetate buffer, pH 5.25, temperature range 0–80 °C, 15 min incubations) were determined using 0.2% (w/v) 4NP-Glc[21],[59]. Relative rates of hydrolysis of β-linked poly-, oligosaccharides, and aryl-glucosides were determined using near-homogenous HvExoI at 50 pmoles. […] Kinetic parameters were calculated from the analyses of Michaelis-Menten plots with Grafit 7.0.3[62] and processed by a proportional weighted fit, using nonlinear regression. The relative rates of hydrolysis, kinetic, and inhibition data were rounded to one or two decimal points (Supplementary Tables 2–4).

HvExoI W286Y mutant = molecular target: T2, HvExoI W286Y mutant (Hordeum vulgare, UniProt Q9XEI3, W311Y); settings: substance is the substrate, nd = activity not detected
T2 sequence (Q9XEI3 26-630 W311Y): T1 sequence (Q9XEI3 26-630 W311F/W459F) with F286Y, F434W
Protocol: as §1

HvExoI W434H mutant = molecular target: T3, HvExoI W434H mutant (Hordeum vulgare, UniProt Q9XEI3, W459H); settings: substance is the substrate
T3 sequence (Q9XEI3 26-630 W459H): T1 sequence (Q9XEI3 26-630 W311F/W459F) with F286W, F434H
Protocol: as §1

HvExoI W434F mutant = molecular target: T4, HvExoI W434F mutant (Hordeum vulgare, UniProt Q9XEI3, W459F); settings: substance is the substrate, nd = activity not detected
T4 sequence (Q9XEI3 26-630 W459F): T1 sequence (Q9XEI3 26-630 W311F/W459F) with F286W
Protocol: as §1

Row | Compound | Activity (relative rate of hydrolysis) [1] | Activity (relative rate of hydrolysis) (HvExoI W286Y mutant) | Activity (relative rate of hydrolysis) (HvExoI W434H mutant) | Activity (relative rate of hydrolysis) (HvExoI W434F mutant)
1 | OC[C@H]1O[C@@H](O[C@@H]2[C@@H](O)[C@H](O[C@@H]3[C@@H](O)[C@H](O[C@@H]4[C@@H](O)[C@H](O[C@@H]5[C@@H](O)[C@H](O)O[C@H](CO)[C@H]5O)O[C@H](CO)[C@H]4O)O[C@H](CO)[C@H]3O)O[C@H](CO)[C@H]2O)[C@H](O)[C@@H](O)[C@@H]1O [Laminaripentaose] | 0.4 ± 0.04 μmole/min per mg protein | 14.8 ± 0.4 μmole/min per mg protein | 1.5 ± 0.1 μmole/min per mg protein | 14.6 ± 0.4 μmole/min per mg protein
2 | OC[C@H]1O[C@@H](O[C@@H]2[C@@H](O)[C@H](O[C@H]3[C@H](O)[C@@H](CO)OC(O)[C@@H]3O)O[C@H](CO)[C@H]2O)[C@H](O)[C@@H](O)[C@@H]1O (some centres unmarked) [Laminaritriose] | 0.5 ± 0.04 μmole/min per mg protein | 14.1 ± 0.4 μmole/min per mg protein | 1.5 ± 0.04 μmole/min per mg protein | 18.4 ± 1.4 μmole/min per mg protein
3 | laminarin | 0.2 ± 0.01 μmole/min per mg protein | 14.2 ± 1.3 μmole/min per mg protein | 0.7 ± 0.02 μmole/min per mg protein | 7.8 ± 0.4 μmole/min per mg protein
4 | Gentiobiose | 0.01 ± 0.001 μmole/min per mg protein | 7.6 ± 0.8 μmole/min per mg protein | 0.3 ± 0.02 μmole/min per mg protein | 1.2 ± 0.3 μmole/min per mg protein
5 | Cellobiose | 0.01 ± 0.001 μmole/min per mg protein | 3.2 ± 0.1 μmole/min per mg protein | 0.1 ± 0.01 μmole/min per mg protein | 0.4 ± 0.1 μmole/min per mg protein
